Reference: patent US20240092741A1, “COMPOSITION FOR PREVENTION OR TREATMENT OF NEUROFIBROMATOSIS TYPE 2 SYNDROME” (PRG S&TECH INC., priority 2021, published 2024)
“Also recorded” adds a separate entry of the source.

Legend:
[1] = test system: RKIP; test: RKIP / p-Erk immunoblotting in mouse schwannoma (mouse NF2) cells; type: cell-based
Procedure: (§1) Cells were harvested and lysed using RIPA buffer [50 mM Tris-Cl, pH 7.5, 150 mM NaCl, 1% NP-40, 0.1% SDS, and 10% sodium deoxycholate] to examine cellular signaling. Protein concentrations in samples were measured using Bio-Rad (Hercules, CA, USA) protein assay kits and BSA standards. The samples (20 μg protein per lane) were separated by sodium dodecyl sulfate-polyacrylamide gel electrophoresis (SDS-PAGE), transferred to Immobilon-P^SQ transfer membranes (Millipore Corp., MA, USA), which were then cultured with 3% skim milk-containing TBS-T buffer (Tris-HCl-based buffer containing 20 mM Tris pH 7.6, 150 mM NaCl, and 0.05% Tween 20) for 1 hour at room temperature and then reacted with primary antibody in TBS-T overnight at 4° C. The membranes were then washed and reacted with secondary horseradish peroxidase (HRP)-conjugated antibodies [goat anti-mouse, goat anti-rabbit, and mouse anti-goat antibodies (Pierce, Thermo Fisher Scientific, Inc., Rockford, IL, USA)] in TBS-T at room temperature for 2 hours. The blots were detected using an HRP-conjugated secondary antibody using ECL kit (Intron, Seoul, Korea).

[2] = test system: HEI-193 cells; test: Tumorsphere formation assay, HEI-193 cells; type: cell-based, human; conditions: 10 μM
Procedure: For tumorsphere formation assay, Hei-193 or mouse schwannoma cells (3×10^6 cells/plate) were cultured in DMEM/F12 medium (supplemented with 2% B27 and 40 ng/ml bFGF) and added with the indicated chemicals on non-coated plates for indicated days.

[3] = test system: HEI-193 cells; test: Morphological change / differentiation of HEI-193 cells; type: cell-based, human; conditions: 7 days (FIGS. 12C, 13B)
[4] = test system: RKIP; test: RKIP expression by Western blotting in HEI-193 cells; type: cell-based, human; conditions: compounds 10 μM, 24 h (FIG. 1A) or 72 h (FIG. 2), Western blot
Procedure: as §1
Because RKIP degradation in NF2 cells is clearly known (Mol Cancer Ther 17, 2271-2284, 2018), after first treating 260 novel synthetic compounds, RKIP expression was measured in HEI-193, a human NF2 cell line.

[5] = target: T1, interaction between TβR1 and RKIP (Homo sapiens, UniProt P30086+P36897); test: GST-pull down assay of TβR1-RKIP interaction; type: binding
T1 construct: host or cells: HEK293 (TβR1 lysate)
T1 sequence (P30086 whole entry): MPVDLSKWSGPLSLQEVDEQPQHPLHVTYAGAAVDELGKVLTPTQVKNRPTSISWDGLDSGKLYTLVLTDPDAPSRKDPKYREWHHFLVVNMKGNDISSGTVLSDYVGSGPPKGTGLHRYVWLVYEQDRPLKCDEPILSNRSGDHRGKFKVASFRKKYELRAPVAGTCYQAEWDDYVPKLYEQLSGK
T1 sequence (P36897 34-503): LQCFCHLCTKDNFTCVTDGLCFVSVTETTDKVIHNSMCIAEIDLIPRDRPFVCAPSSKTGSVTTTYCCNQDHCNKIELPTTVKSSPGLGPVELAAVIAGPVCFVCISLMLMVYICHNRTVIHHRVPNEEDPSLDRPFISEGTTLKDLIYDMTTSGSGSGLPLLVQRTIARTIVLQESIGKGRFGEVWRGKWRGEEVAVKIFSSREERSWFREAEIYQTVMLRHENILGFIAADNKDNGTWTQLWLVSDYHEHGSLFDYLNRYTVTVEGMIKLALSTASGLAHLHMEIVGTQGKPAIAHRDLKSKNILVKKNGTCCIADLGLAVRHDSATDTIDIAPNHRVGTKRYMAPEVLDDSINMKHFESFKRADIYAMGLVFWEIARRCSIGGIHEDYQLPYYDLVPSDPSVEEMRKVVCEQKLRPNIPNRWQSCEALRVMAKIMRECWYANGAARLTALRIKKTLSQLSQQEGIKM
Procedure: For protein-protein interaction analysis, glutathione S-transferase (GST)-pull down assay was performed. For GST-pull down, agarose-bead-conjugated GST-RKIP recombinant protein was reacted with FLAG-tagged TβR1-transfected HEK 293 cell lysates in PBS buffer at 4° C. for 1 hour. Immunoprecipitation (IP) assay was performed by reacting with FLAG-tagged TβR1- or HA-tagged RKIP-transfected HEI-193 cell lysates in PBS buffer. Whole lysates were reacted with appropriate primary antibodies at 4° C. for 2 hours and with agarose-bead-conjugated protein A/G (Invitrogen, Carlsbad, CA, USA) for 2 hours. After centrifugation, the precipitates were washed twice with RIPA buffer and subjected to SDS-PAGE and western blotting analysis.

[6] = test system: RKIP; test: Immunoblotting of transfected wild-type and mutant RKIP; type: cell-based; conditions: 10 μM, 24 h (FIG. 8E)
Procedure: pCMV RKIP-HA was provided by Keum G (David Geffen School of Medicine at University of California, Los Angeles, CA, USA). pCMV RKIP-T101A-HA and pCMV RKIP-T101D-HA were generated by Dr. J. H. Hwang (Pusan National University). pcDNA3 NF2-FLAG, pRK5 TGF beta type 1 receptor-FLAG, and TGF beta type 2 receptor-HA were obtained from Addgene (Cambridge, MA, USA). Transfection was performed using the Jetpei transfection agent (Polyplus New York, USA) for mammalian expression of these vectors.
In other words, cells were seeded at a density of 2×10^5 cells/well in 12-well plates and cultured overnight before transfection. The vector (1.5 μg) was mixed with 1.5 μl of Jetpei reagent dissolved in 150 mM NaCl solution. The mixture was reacted at room temperature for 15 minutes, and then added to the cells. After 3 hours, the serum-free medium 15 was replaced with medium supplemented with 10% FBS.
Cells were harvested and lysed using RIPA buffer [50 mM Tris-Cl, pH 7.5, 150 mM NaCl, 1% NP-40, 0.1% SDS, and 10% sodium deoxycholate] to examine cellular signaling. Protein concentrations in samples were measured using Bio-Rad (Hercules, CA, USA) protein assay kits and BSA standards. […] The blots were detected using an HRP-conjugated secondary antibody using ECL kit (Intron, Seoul, Korea).

[7] = High-dose toxicity in normal mice (body weight); type: in vivo
[8] = tumorspheres, 10th day, immunoblotting (FIGS. 15B, 14E)

Question: Which RKIP expression ([1]; mouse NF2 cell line) does the source give for CCN(CC)CCOc1ccc(-c2nnn(Cc3ccc(OC)cc3)c2N)cc1 [PRG-N-01, 4-(4-(2-(diethylamino)ethoxy)phenyl)-1-(4-methoxybenzyl)-1H-1,2,3-triazol-5-amino] here?
Answer: The RKIP expression was “increased RKIP expression”.

Question: What about the “RKIP induction and p-Erk suppression” value ([1]; mouse schwannoma cells, 36 h (FIG. 9B)) of the same molecule?
Answer: Its value is “observed only in actual mouse schwannoma”.

Question: What about the “tumorsphere size and number” value ([2]; HEI-193 cells, 10th day) of the same molecule?
Answer: Its value is “reduced the tumorsphere size as well as the number of tumorsphere”.

Question: And the tumorsphere formation ([2]; HEI-193 cells, DMEM/F12 medium)?
Answer: Its tumorsphere formation is “obviously inhibited tumorsphere formation”.

Question: And the “SOX10 expression in tumorspheres” value [2, 8]?
Answer: The value was “obviously increased”.

Question: What about the “expression of stem cell factors (SOX2, c-Myc, Nanog, Oct4) in tumorspheres” value [2, 8] of the same molecule?
Answer: The value was “downregulated to undetectable levels”.

Question: And the morphological changes [3]?
Answer: The morphological changes was “induced morphological changes”.

Question: And the RKIP expression [4]?
Answer: Its RKIP expression is “induced RKIP expression; also recorded: increased RKIP expression”.

Question: What about the “interaction between TβR1 and RKIP at low concentrations” value ([5]; GST pull-down, low concentrations (FIG. 6B)) of the same molecule?
Answer: The value was “showed an inhibitory effect even at low concentrations”.

Question: What about the “interaction between TβR1 and RKIP” value ([5]; GST-RKIP beads with TβR1-transfected HEK293 lysates, 5 and 10 μM, 2 h (FIG. 5B)) of the same molecule?
Answer: Its value is “inhibited the interaction between TβR1 and RKIP in a dose-dependent manner”.

Question: What about the “wild-type RKIP expression” value ([6]; HEI-193 and mouse schwannoma cells transfected with WT RKIP) of the same molecule?
Answer: The value was “induced wild-type RKIP expression”.

Question: And the “expression of RKIP mutants (T101A stable form, T101D unstable form)” value ([6]; HEI-193 and mouse schwannoma cells transfected with mutants)?
Answer: The value was “did not alter the expression”.

Question: And the body weight ([7]; 200 mg/kg intraperitoneally (FIG. 18B))?
Answer: The body weight was “did not change the body weight”.

Question: And the toxicity ([7]; 200 mg/kg, 10 times the therapeutic dose)?
Answer: Its toxicity is “did not cause severe toxicity”.
